Laboratory results taken from patent publication US20190365689A1, “USE OF APE/REF-1 REDOX SPECIFIC INHIBITORS FOR TREATING METASTATIC PROSTATE CANCER” (Indiana University Research and Technology Corporation, priority 2017, published 2019).

Assays:
LNCaP cells = assay: Methylene blue assay (cell proliferation), LNCaP; type: cell-based, human; conditions: 5 days
Protocol: (§1) The cells were fixed and stained with methylene blue and measured via spectrophotometry. […] EC50s were compared between the drugs: * denotes p<0.05 drug EC50 versus RN7-58, while ¶ denotes p<0.05, APX3330 versus APX2009.
(§2) Methylene Blue Assay (Cell Proliferation)
(§3) Prostate cells were seeded 1,000-5000 per well (cell line/experiment-dependent) and treated with one of APX3330, APX2009 or RN7-58 for 5 days. Media was then removed and cells were fixed with methanol for 10 minutes and stained with 100 μL of 0.05% of methylene blue (LC16920-1 diluted in 1×PBS) for 1 hour. The cells were then washed 3× with water and allowed to air dry overnight. 100 μL of 0.5 N HCl was added to each well to dissolve the methylene blue stain and absorbance (@630) was measured via spectrophotometry. The percent viabilities, normalized to DMSO, were graphed and IC50 concentrations determined.
(§4) To determine if inhibition of APE1/Ref-1's redox function affects cell proliferation, prostatic cell lines were treated with increasing concentrations of redox-specific inhibitors, APX3330 and APX2009, for 5 days and cell number was measured via methylene blue assay (FIG. 2A). […] Growth IC25's and IC50's were determined and arranged in Table 1. Student's t-test was performed to verify statistical IC25 and IC50 differences between APX3330 and APX2009.

C4-2 xenograft tumors = assay: In vivo subcutaneous C4-2 xenograft tumor; set-up: species or system male athymic nude mice
Protocol: C4-2 xenograft tumors were treated with vehicle (Propylene Glycol Kolliphor HS15 Tween 80 (PKT)) or APX2009 (25 mg/kg, IP bid) for 5 days (n=3). Tumors were removed and processed for either immunofluorescence or immunoblotting. FIG. 8A: APE1/Ref-1 and survivin protein levels were measured using immunoblotting as labeled (Left). Data was presented graphically (Right), *-denoting p<0.05 by unpaired Student's t-Test. FIG. 8B: Hematoxylin and Eosin staining and immunofluorescence were performed using APE1/Ref-1 (red) and survivin (green) specific antibodies on vehicle and APX2009 groups. Representative images were taken. White arrows are depicting survivin nuclear staining patterns. […] ImageJ Nucleus Counter was used to quantify number of BrdU+ nuclei and total nuclei per image. n=3, *-denoting p<0.05 by unpaired Student's t-test.
Human prostate specimens or C4-2 xenograft tumors were fixed in 10% formalin, processed routinely, embedded in paraffin, and serially sectioned at 5 μm via microtome. […] The sections were analyzed by immunofluorescence. […]
2×10^6 C4-2 cells were subcutaneously implanted in the hind flank of male athymic nude mice using a 100 μl volume of 50:50 solution of Matrigel: RPMI medium. […] BrdU was injected into the animals 2 hours prior to sacrifice and tumor tissues were analyzed for survivin levels (immunofluorescence and immunoblotting) and BrdU incorporation (immunofluorescence).

E7 cells = assay: Methylene blue assay (cell proliferation), E7 non-cancerous prostate epithelial cells; type: cell-based; conditions: E7, 5 days
Protocol: as §1, §2, §3, §4

C4-2 cells = assay: Methylene blue assay (cell proliferation), C4-2; type: cell-based, human; conditions: C4-2, 5 days
Protocol: as §1, §2, §3, §4

PC-3 cells = assay: Methylene blue assay (cell proliferation), PC-3; type: cell-based, human; conditions: PC-3, 5 days
Protocol: as §1, §2, §3, §4

survivin = assay: Immunoblotting for survivin protein levels in prostate cancer cells; type: cell-based, human
Protocol: (§5) PC-3 (FIG. 3A), C4-2 (FIG. 3B), LNCaP (FIG. 3C) and E7 (FIG. 3D) cell lines were treated with DMSO, or the growth inhibitory IC25 and IC50 drug concentrations of APX3330 or APX2009 for 48 hours Immunoblotting for survivin, APE1/Ref-1 and Actin as labeled. Representative of three determinations with densitometry quantification, N=3, *-denoting p<0.05 (DMSO vs. IC25 and IC50 Drug Concentrations) within ANOVA.
FIG. 6A: C4-2 cell line was treated with DMSO or APX2009 (14 μM) for 12 hours. RNA was isolated and RT-PCR for survivin was performed with HPRT1 as the reference gene. n=6, *-denoting p<0.05 by unpaired Student's t-test. FIG. 6B: Immunoblot validation of APE1/Ref-1 and p65 Co-Immunoprecipitation (Co-IP) reactions. A 5% sample of the total input of each reaction (Input) and the total IP reaction (IP) were loaded for each reaction. Beads lacking a conjugated antibody (Mock) and generic IgG (IgG) were used as negative controls for each IP experimental reaction, APE1 antibody (top blots) and p65 (bottom blots). FIG. 6C: C4-2 cell line was treated with DMSO, APX2009 (8 and 14 μM) or PDTC (50 and 100 μM) for 72 hours and cells were fixed and methylene blue was performed. n=3, *-denoting p<0.05 (DMSO vs 8 and 14 μM APX2009) and #-denoting p<0.05 (DMSO vs. 50 and 100 μM PDTC) as assessed by ANOVA. […] Data are expressed as Relative Luciferase Units (RLU) normalized to DMSO showing the mean±SEM. n=3, *-denoting p<0.05 (DMSO vs. 14 μM APX2009) and #-denoting p<0.05 (DMSO vs. 100 μM PDTC) within unpaired Students t-test. […] Data presented are representative of three determinations with densitometry quantification, […], *-denoting p<0.05 (DMSO vs. 14 μM APX2009) and #-denoting p<0.05 (DMSO vs. 100 μM) as assessed by unpaired Student's t-test.
Prostate cells were homogenized in lysis buffer containing protease inhibitor (150 mM NaCl, 10 mM tris, 1 mM EDTA, 1 mM benzenesulfonyl fluoride, and 10 μg/ml each of aprotinin, bestatin, L-luecine, and pepstatin A) and 1% Triton X-100. Total protein concentration was determined by BCA (bicinchoninic acid) assay (Pierce, Rockford, Ill.). […]

APE1/Ref-1 = assay: Immunoblotting for total APE1/Ref-1 protein levels in prostate cancer cells; type: cell-based, human; conditions: growth inhibitory drug concentrations, 48 hours, vs DMSO
Protocol: as §5
Prostate cells were homogenized in lysis buffer containing protease inhibitor (150 mM NaCl, 10 mM tris, 1 mM EDTA, 1 mM benzenesulfonyl fluoride, and 10 μg/ml each of aprotinin, bestatin, L-luecine, and pepstatin A) and 1% Triton X-100. Total protein concentration was determined by BCA (bicinchoninic acid) assay (Pierce, Rockford, Ill.). 10 μg/well of Protein were resolved by electrophoresis in 4-15% gradient polyacrylamide gels (Bio-Rad Laboratories). […] Peroxidase activity was detected via Pico chemiluminescence reagent (Pierce). Photo images were analyzed by densitometry.

prostatic cell lines = assay: Methylene blue assay (cell proliferation), statements across prostatic cell lines; type: cell-based, human; conditions: increasing concentrations, 5 days
Protocol: as §1, §2, §3, §4

NFκB = assay: NFκB-driven luciferase assay in C4-2 cells; type: cell-based, human; conditions: C4-2, growth inhibitory IC50 concentrations (14 μM APX2009, 100 μM PDTC), 24 hours
Protocol: FIG. 6A: C4-2 cell line was treated with DMSO or APX2009 (14 μM) for 12 hours. RNA was isolated and RT-PCR for survivin was performed with HPRT1 as the reference gene. n=6, *-denoting p<0.05 by unpaired Student's t-test. FIG. 6B: Immunoblot validation of APE1/Ref-1 and p65 Co-Immunoprecipitation (Co-IP) reactions. A 5% sample of the total input of each reaction (Input) and the total IP reaction (IP) were loaded for each reaction. Beads lacking a conjugated antibody (Mock) and generic IgG (IgG) were used as negative controls for each IP experimental reaction, APE1 antibody (top blots) and p65 (bottom blots). FIG. 6C: C4-2 cell line was treated with DMSO, APX2009 (8 and 14 μM) or PDTC (50 and 100 μM) for 72 hours and cells were fixed and methylene blue was performed. n=3, *-denoting p<0.05 (DMSO vs 8 and 14 μM APX2009) and #-denoting p<0.05 (DMSO vs. 50 and 100 μM PDTC) as assessed by ANOVA. […] Data are expressed as Relative Luciferase Units (RLU) normalized to DMSO showing the mean±SEM. n=3, *-denoting p<0.05 (DMSO vs. 14 μM APX2009) and #-denoting p<0.05 (DMSO vs. 100 μM PDTC) within unpaired Students t-test. […] Data presented are representative of three determinations with densitometry quantification, […], *-denoting p<0.05 (DMSO vs. 14 μM APX2009) and #-denoting p<0.05 (DMSO vs. 100 μM) as assessed by unpaired Student's t-test. […]

[1] = 25% reduction in absorbance vs DMSO, in µM
[2] = 50% reduction in absorbance vs DMSO, read-out: Growth IC50

Compound | Growth IC25 (LNCaP cells; [1]) | IC50 (LNCaP cells; [2]) [µM] | Total survivin protein in tumors via immunoblotting (C4-2 xenograft tumors; 25 mg/kg BID IP, 5 days, vs vehicle) | cell proliferation via BrdU staining (C4-2 xenograft tumors; prostatic tumor xenografts) | Growth IC25 (E7 cells; [1]) | IC50 (E7 cells; [2]) [µM] | Growth IC25 (C4-2 cells; [1]) | IC50 (C4-2 cells; [2]) [µM] | Growth IC25 (PC-3 cells; [1]) | IC50 (PC-3 cells; [2]) [µM] | survivin protein abundance (survivin; growth inhibitory IC50 drug concentrations, within 48 hours, vs DMSO) | survival proteins Bcl-2, Mcl-1 and survivin (survivin; prostate cell lines, immunoblotting) | total APE1/Ref-1 protein levels (APE1/Ref-1) | Effect on cell proliferation (prostatic cell lines) | reduction in survivin protein levels (survivin; C4-2, 14 μM APX2009 / 100 μM PDTC, 48 hours) [%] | decrease in NFκB-driven luciferase activity (NFκB)
3-[(5-(2,3-dimethoxy-6-methyl1,4-benzoquinoyl)]-2-nonyl-2-proprionic acid [APX3330] | 43.8 +/− 4.2 | 71.9 | decreased | decreased | 82.7 +/− 8.7 | > 100 | 57.4 +/− 3.8 | 89.5 | 36.0 +/− 1.0 | 54.7 | significant decrease | decrease | not significantly altered | inhibited cell proliferation in a concentration-dependent manner |  | 
N.S=C(S)N1CCCC1 [PDTC, Ammonium pyrrolidinedithiocarbamate, reference compound] |  |  |  |  |  |  |  |  |  |  |  |  |  |  | 67 | two-fold
